Results taken from patent US5670509A, “Tocolytic oxytocin receptor antagonists” (priority 1995, dated 1997).
Where two headings read alike, the source gives them in different places.

Experiments:
premature labor = details: compared with ritodrine; cited from earlier work
uterine OT receptors = target: T1, uterine OT receptors (Rattus norvegicus, UniProt P70536); assay: Radioligand binding assay: competition of [3H]oxytocin binding to a crude membrane preparation of uteri from DES-treated rats; details: 1 nM [3H]OT; 60 minutes; 22° C.; pH 7.4; rat uterus membranes
T1 construct: from tissue; host or cells: rat uterus (DES-treated), crude membrane preparation
T1 sequence (P70536 1-388): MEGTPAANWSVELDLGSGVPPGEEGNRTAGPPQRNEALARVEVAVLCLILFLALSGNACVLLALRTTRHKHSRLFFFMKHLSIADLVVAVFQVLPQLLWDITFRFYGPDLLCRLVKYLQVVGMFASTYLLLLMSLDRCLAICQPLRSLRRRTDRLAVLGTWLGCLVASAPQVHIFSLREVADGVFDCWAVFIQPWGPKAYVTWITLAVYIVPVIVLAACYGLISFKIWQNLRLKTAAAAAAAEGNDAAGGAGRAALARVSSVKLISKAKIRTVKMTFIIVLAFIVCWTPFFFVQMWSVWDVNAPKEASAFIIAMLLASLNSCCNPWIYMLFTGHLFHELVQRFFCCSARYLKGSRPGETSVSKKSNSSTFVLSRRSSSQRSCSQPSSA
Protocol: The high affinity binding of [^3 H] Oxytocin (OT)([tyrosyl, 3,5-[^3 H]OT; 30-60 Ci/mmol; New England Nuclear. Boston, Mass.) to uterine OT receptors was based on an assay (Fuchs, A-R; Fuchs, F; Soloff, MS. 1985 J. Clin. Endocrinol. Metab. 60:37) using a crude membrane preparation of uteri taken from diethylstilbestrol dipropionate (DES)-treated (0.3 mg/kg, ip; 18-24) rats. Competition studies were conducted at equilibrium (60 minutes; 22° C.) using 1 nM[^3 H]OT in the following assay buffer: 50 mM Tris-HCl, 5 mM MgCl2, and 0.1% BSA, pH 7.4. Nonspecific binding (10% of the total binding) was determined using 1 μM unlabeled OT and the binding reaction was terminated by filtration through glass fiber filters using a cell harvester (model 7019, Skatron, Inc., Sterling, Va.). IC50 (the concentration of tested compound that inhibits 50% of OT) was reported, unless otherwise noted.
IC50 values were determined for both [^3 H]OT and [^3 H]AVP binding assays by linear regression of the relation log concentration of compound vs. percent inhibition of specific binding.

[1] = cited from earlier work

CCO [Ethanol]
effectiveness in preventing premature labor (in words) (premature labor): as effective as ritodrine in preventing premature labor | reduction in the incidence of fetal respiratory distress (in words) (premature labor): does not produce a corresponding reduction in the incidence of fetal respiratory distress that administration of ritodrine does

O=C(Cc1ccc2c(c1)OCO2)N1CCC2(C=Cc3ccccc32)CC1 [Example 10]
IC50 (uterine OT receptors): 3700 nM

O=C(Nc1ccc(CC(=O)N2CCC3(C=Cc4ccccc43)CC2)cc1)c1ccc2[nH]cnc2c1 [Example 12]
IC50 (uterine OT receptors): 150 nM

O=C(CCc1c[nH]cn1)Nc1ccc(CC(=O)N2CCC3(CCc4ccccc43)CC2)cc1 [Example 14]
IC50 (uterine OT receptors): 170 nM

O=C(Nc1ccc(CC(=O)N2CCC3(C=Cc4ccccc43)CC2)cc1)c1ccc2[nH]ccc2c1 [Example 15]
IC50 (uterine OT receptors): 310 nM

O=C(Nc1ccc(CC(=O)N2CCC3(C=Cc4ccccc43)CC2)cc1)c1ccc2[nH]nnc2c1 [Example 16]
IC50 (uterine OT receptors): 520 nM

O=S(=O)([O-])[O-].[Mg+2] [Magnesium sulfate]
toxicity at plasma concentrations above the therapeutic range (in words) ([1]; above 4 to 8 mg/dL plasma): can cause inhibition of cardiac conduction and neuromuscular transmission, respiratory depression and cardiac arrest | therapeutic range of plasma concentrations ([1]; plasma): 4 to 8 mg/dL

CC(NCCc1ccc(O)cc1)C(O)c1ccc(O)cc1 (stereo not drawn) [Ritodrine]
side effects (in words) ([1]; tocolytic use, in the mother): causes a number of cardiovascular and metabolic side effects in the mother, including tachycardia, increased renin secretion, hyperglycemia (and reactive hypoglycemia in the infant)

CC(C)(C)NCC(O)c1ccc(O)c(CO)c1 (stereo not drawn) [albuterol]
side effects (in words) ([1]; in vivo): side effects similar to those of ritodrine

CC(C)(C)NCC(O)c1cc(O)cc(O)c1 (stereo not drawn) [terbutaline]
side effects (in words) ([1]; tocolytic use, in the mother): side effects similar to those of ritodrine
